Values after ≈ are worked out from the molar mass of the structure shown.

Test [1] deals with Escherichia coli. The experiment in a line: Antimicrobial activity against fluoroquinolone-resistant Escherichia coli NorE5 harboring GyrA S83L mutant, ParC S80R mutant, truncated SoxR and constitutively active SoxS by Etest. It counts as functional.
Test [2] deals with Escherichia coli. The test can be described thus: Antimicrobial activity against fluoroquinolone-susceptible Escherichia coli PS5 harboring GyrA S83L mutant gene by Etest. The class given is functional.

As for `CN(C)[C@@H]1C(O)=C(C(N)=O)C(=O)[C@@]2(O)C(O)=C3C(=O)c4c(O)cccc4[C@@](C)(O)[C@H]3C[C@@H]12` [TETRACYCLINE], the MIC (in general, the smallest concentration in the dilution series that meets the test's criterion for growth inhibition) in test [1] was found to be 8 µg/mL (≈ 18 µM); in test [2] it was 2 µg/mL (≈ 4.5 µM).

As to `NCC[C@H](O)C(=O)N[C@@H]1C[C@H](N)[C@@H](O[C@H]2O[C@H](CN)[C@@H](O)[C@H](O)[C@H]2O)[C@H](O)[C@H]1O[C@H]1O[C@H](CO)[C@@H](O)[C@H](N)[C@H]1O` [AMIKACIN], the MIC in test [1] and in test [2] was 12 µg/mL (≈ 20.5 µM) in each case.

On to `COc1cc(Cc2cnc(N)nc2N)cc(OC)c1OC` [TRIMETHOPRIM], for which the MIC is 8 µg/mL (≈ 27.6 µM) in test [1] and 0.5 µg/mL (≈ 1.72 µM) in test [2].

For `CC[C@H]1OC(=O)[C@H](C)[C@@H](O[C@H]2C[C@@](C)(OC)[C@@H](O)[C@H](C)O2)[C@H](C)[C@@H](O[C@@H]2O[C@H](C)C[C@H](N(C)C)[C@H]2O)[C@](C)(O)C[C@@H](C)C(=O)[C@H](C)[C@@H](O)[C@]1(C)O` [ERYTHROMYCIN], the MIC in test [1] is > 256 µg/mL; in test [2], 64 µg/mL (≈ 87.2 µM).

In the case of `CC1(C)S[C@@H]2[C@H](NC(=O)[C@H](N)c3ccc(O)cc3)C(=O)N2[C@H]1C(=O)O` [AMOXICILLIN], the MIC in test [1] was > 256 µg/mL; in test [2] it was 48 µg/mL (≈ 131 µM).

In the case of `O=C(N[C@H](CO)[C@H](O)c1ccc([N+](=O)[O-])cc1)C(Cl)Cl` [CHLORAMPHENICOL], the minimum inhibitory concentration (MIC) in test [1] turned out to be 64 µg/mL (≈ 198 µM); in test [2], 8 µg/mL (≈ 24.8 µM).

Consider `CCn1cc(C(=O)O)c(=O)c2ccc(C)nc21` [NALIDIXIC ACID], for which the minimum inhibitory concentration (MIC) in test [1] was found to be 2050 µg/mL (≈ 8820 µM); in test [2] it was 1020 µg/mL (≈ 4410 µM).

As for `CCn1cc(C(=O)O)c(=O)c2cc(F)c(N3CCNCC3)cc21` [NORFLOXACIN], the MIC in test [1] was 32 µg/mL (≈ 100 µM); in test [2], 0.5 µg/mL (≈ 1.57 µM).

(Values after ChEMBL document CHEMBL1255385, “Constitutive SoxS expression in a fluoroquinolone-resistant strain with a truncated SoxR protein and identification of a new member of the marA-soxS-rob regulon, mdtG” (2010).)
